In article PMC6214572, “Carboxypeptidase O is a lipid droplet-associated enzyme able to cleave both acidic and polar C-terminal amino acids” (PLoS ONE, 2018) one finds no enzymatic activity data, which are given here for one compound.

The assay addresses T1, Carboxypeptidase O (CPO) (Homo sapiens, UniProt Q8IVL8, W297L).
T1 construct: full-length GPI-anchored enzyme without prodomain, (plasmid pcDNA-CPO in HEK293T); Triton X-100 cell lysate
T1 sequence (Q8IVL8 21-352 W297L): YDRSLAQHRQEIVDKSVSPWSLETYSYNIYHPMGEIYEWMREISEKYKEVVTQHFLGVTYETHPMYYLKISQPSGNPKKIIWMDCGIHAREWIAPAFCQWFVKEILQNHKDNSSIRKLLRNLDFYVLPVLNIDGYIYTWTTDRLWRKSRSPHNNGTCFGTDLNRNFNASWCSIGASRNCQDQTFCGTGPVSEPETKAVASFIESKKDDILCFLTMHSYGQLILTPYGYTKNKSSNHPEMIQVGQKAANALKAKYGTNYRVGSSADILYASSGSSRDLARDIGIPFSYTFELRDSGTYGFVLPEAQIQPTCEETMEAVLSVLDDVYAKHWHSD
The assay can be described thus: absorbance decrease at […] nm after […] min. Format: biochemical. To be noted: lysate of transfected HEK293T cells; 0.5 mM FA-EE, 37°C; inactive mutant.

On to `O=C(O)CC[C@H](NC(=O)[C@H](CCC(=O)O)NC(=O)C=Cc1ccco1)C(=O)O` [FA-Glu-Glu], for which the no enzymatic activity result is given as “The W297L CPO mutant exhibits no enzymatic activity, although fully expressed”.
